Structures can show the parent of a compound that is named as a salt.

The test system of the first experiment is SMN2 promoter. The experiment is described as follows: SMN2 promoter assay (β-lactamase reporter) in NSC-34 cells. The format is cell-based, mouse. Conditions: Mus musculus, SMN2 promoter driving β-lactamase, 12 point dose curve, average of 3-6 dose curve experiments.
In the case of `Nc1nc(N)c2c(OC3CC4CCC3C4)cccc2n1` (stereo not shown) [Example 124, 5-(Bicyclo[2.2.1]hept-2-yloxy)-quinazoline-2,4-diamine], the EC50 was less than 1000 nM.
For the compound `CCCC(Oc1cccc2nc(N)nc(N)c12)C1CCCCC1` (stereo not shown) [Example 125, 5-(1-Cyclohexyl-butoxy)-quinazoline-2,4-diamine], the EC50 is less than 1000 nM.
The same measure, in the same setting: the figure for `CC(Oc1cccc2nc(N)nc(N)c12)C1CCCCC1` (stereo not shown) [Example 126, 5-(1-Cyclohexyl-ethoxy)-quinazoline-2,4-diamine] is less than 1000 nM; for `CC1(COc2cccc3nc(N)nc(N)c23)COC1` [Example 127, 5-(3-Methyl-oxetan-3-ylmethoxy)-quinazoline-2,4-diamine] it is less than 1000 nM; for `Nc1nc(N)c2c(OC3COc4ccc(Cl)cc43)cccc2n1` (stereo not shown) [Example 128, 5-(5-Chloro-2,3-dihydro-benzofuran-3-yloxy)-quinazoline-2,4-diamine] it is less than 1000 nM.
The same measure, in the same setting: the figure for `CCC(Oc1cccc2nc(N)nc(N)c12)C1CCCCC1` (stereo not shown) [Example 129, 5-(1-Cyclohexylpropoxy)-quinazoline-2,4-diamine] is less than 1000 nM.
On the same count and under the same terms, the figure for `Nc1nc(N)c2c(OCC3CC4CC3C(O)C4O)cccc2n1` (stereo not shown) [Example 131, 5-(2,4-Diamino-quinazolin-5-yloxymethyl)-bicyclo[2.2.1]heptane-2,3-diol] is less than 1000 nM.
`Nc1nc(N)c2c(OCC3CCN(C(=O)c4ccccc4Cl)CC3)cccc2n1` [Example 133, (2-Chlorophenyl)-[4-(2,4-diamino-quinazolin-5-yloxymethyl)-piperidin-1-yl]-methanone] showed an EC50 of less than 1000 nM.
On the same count and under the same terms, the figure for `Nc1nc(N)c2c(OCC3CCN(C(=O)c4cccc(Cl)c4)CC3)cccc2n1` [Example 134, (3-Chlorophenyl)-[4-(2,4-diamino-quinazolin-5-yloxymethyl)-piperidin-1-yl]-methanone] is less than 1000 nM; for `Nc1nc(N)c2c(COc3ccccc3Cl)cccc2n1` [Example 138, 5-(2-Chlorophenoxymethyl)quinazoline-2,4-diamine] it is less than 1000 nM; for `Cc1cc(Cl)ccc1OCc1cccc2nc(N)nc(N)c12` [Example 139, 5-(4-Chloro-2-methylphenoxymethyl)quinazoline-2,4-diamine] it is less than 1000 nM.
Still for that read-out and setting: the figure for `CC(C)(Oc1cccc2nc(N)nc(N)c12)c1cccc(Cl)c1` [Example 140, 5-[1-(3-Chlorophenyl)-1-methylethoxy]quinazoline-2,4-diamine] is 1000 to 5000 nM.
With `Cc1cc(OCc2cccc3nc(N)nc(N)c23)ccc1Cl` [Example 141, 5-(4-Chloro-3-methylphenoxymethyl)quinazoline-2,4-diamine], the EC50 was less than 1000 nM.
Same read-out and setting: as for `COc1ccccc1COc1cccc2nc(N)nc(N)c12` [Example 142, 5-(2-Methoxybenzyloxy)quinazoline-2,4-diamine], the figure is less than 1000 nM; as for `COc1cccc(COc2cccc3nc(N)nc(N)c23)c1` [Example 143, 5-(3-Methoxybenzyloxy)quinazoline-2,4-diamine], less than 1000 nM; as for `COc1ccc(COc2cccc3nc(N)nc(N)c23)cc1` [Example 144, 5-(4-Methoxybenzyloxy)quinazoline-2,4-diamine], less than 1000 nM.
In the case of `Nc1nc(N)c2c(OC3(c4cccc(Cl)c4)CCCCC3)cccc2n1` [Example 145, 5-[1-(3-Chlorophenyl)cyclohexyloxy]quinazoline-2,4-diamine], the EC50 is 1000 to 5000 nM.
Same read-out and setting: the figure for `Nc1nc(N)c2c(OC3(c4cccc(Cl)c4)CC3)cccc2n1` [Example 146, 5-[1-(3-Chlorophenyl)cyclopropoxy]quinazoline-2,4-diamine] is less than 1000 nM; for `Nc1nc(N)c2c(COc3ccc(F)cc3F)cccc2n1` [Example 147, 5-(2,4-Difluorophenoxymethyl)quinazoline-2,4-diamine] it is less than 1000 nM; for `COc1ccc(OCc2cccc3nc(N)nc(N)c23)cc1` [Example 148, 5-(4-Methoxyphenoxymethyl)quinazoline-2,4-diamine] it is 1000 to 5000 nM.
Still for that read-out and setting: the figure for `Nc1nc(N)c2c(O[C@H]3CCc4ccc(Cl)cc43)cccc2n1` [Example 149, 5-((S)-6-Chloroindan-1-yloxy)quinazoline-2,4-diamine] is less than 1000 nM; for `Nc1nc(N)c2c(O[C@@H]3CCc4ccc(Cl)cc43)cccc2n1` [Example 150, 5-((R)-6-Chloroindan-1-yloxy)quinazoline-2,4-diamine] it is less than 1000 nM; for `Nc1nc(N)c2c(OCC3CC4CCC3C4)cccc2n1` (stereo not shown) [Example 151, 5-(Bicyclo[2.2.1]hept-2-ylmethoxy)quinazoline-2,4-diamine] it is less than 1000 nM.
Still for that read-out and setting: the figure for `CC1(C)[C@H]2CC[C@H](COc3cccc4nc(N)nc(N)c34)[C@@H]1C2` [Example 152, 5-((1S,2S,5S)-6,6-Dimethylbicyclo[3.1.1]hept-2-ylmethoxy) quinazoline-2,4-diamine] is less than 1000 nM; for `COCOCC(Oc1cccc2nc(N)nc(N)c12)c1ccc(F)cc1` (stereo not shown) [Example 153, 5-[1-(4-Fluorophenyl)-2-methoxymethoxyethoxy]quinazoline-2,4-diamine] it is less than 1000 nM; for `Nc1nc(N)c2c(OC(CO)c3ccc(F)cc3)cccc2n1` (stereo not shown) [Example 154, 2-(2,4-Diaminoquinazolin-5-yloxy)-2-(4-fluorophenyl)ethanol hydrochloride] it is less than 1000 nM.
On to `COCOC(COc1cccc2nc(N)nc(N)c12)c1ccc2c(c1)OCO2` (stereo not shown) [Example 155, 5-(2-Benzo[1,3]dioxol-5-yl-2-methoxymethoxyethoxy)quinazoline-2,4-diamine], for which the EC50 is less than 1000 nM.
`COCOCC(Oc1cccc2nc(N)nc(N)c12)c1ccc2c(c1)OCO2` (stereo not shown) [Example 156, 5-(1-Benzo[1,3]dioxol-5-yl-2-methoxymethoxyethoxy)quinazoline-2,4-diamine] registered an EC50 of less than 1000 nM.
Regarding `Nc1nc(N)c2c(OCC(O)c3ccccc3)cccc2n1` (stereo not shown) [Example 157, 2-(2,4-Diaminoquinazolin-5-yloxy)-1-phenyl-ethanol], the EC50 is less than 1000 nM.
Same read-out and setting: the figure for `Nc1nc(N)c2c(COc3cccc(Cl)c3)cccc2n1` [Example 158, 5-(3-Chlorophenoxymethyl)quinazoline-2,4-diamine] is less than 1000 nM; for `Nc1nc(N)c2c(COc3ccccc3I)cccc2n1` [Example 159, 5-(2-Iodophenoxymethyl)quinazoline-2,4-diamine] it is less than 1000 nM; for `Nc1nc(N)c2c(OCC(O)c3ccc(Cl)cc3)cccc2n1` (stereo not shown) [Example 160, 1-(4-Chlorophenyl)-2-(2,4-diaminoquinazolin-5-yloxy)ethanol] it is less than 1000 nM.
Take `Nc1nc(N)c2c(OCC(O)c3cccc(Cl)c3)cccc2n1` (stereo not shown) [Example 161, 1-(3-Chlorophenyl)-2-(2,4-diaminoquinazolin-5-yloxy)ethanol]: the EC50 was less than 1000 nM.
On the same count and under the same terms, as for `C[C@H](Oc1cccc2nc(N)nc(N)c12)c1cccc(Cl)c1` [Example 162, 5-[(S)-1-(3-Chlorophenyl)ethoxy]quinazolin-2,4-diamine], the figure is less than 1000 nM.
On the same count and under the same terms, as for `Nc1nc(N)c2c(OCC(O)c3ccc(C(F)(F)F)cc3)cccc2n1` (stereo not shown) [Example 163, 2-(2,4-Diaminoquinazolin-5-yloxy)-1-(4-trifluoromethylphenyl)ethanol], the figure is less than 1000 nM; as for `Nc1nc(N)c2c(OC(CO)c3ccc(Cl)cc3)cccc2n1` (stereo not shown) [Example 164, 2-(4-Chlorophenyl)-2-(2,4-diaminoquinazolin-5-yloxy)ethanol hydrochloride], less than 1000 nM; as for `COC(COc1cccc2nc(N)nc(N)c12)c1ccc(Cl)cc1` (stereo not shown) [Example 165, 5-[2-(4-Chlorophenyl)-2-methoxyethoxy]quinazoline-2,4-diamine], less than 1000 nM.
`COCC(Oc1cccc2nc(N)nc(N)c12)c1ccccc1` (stereo not shown) [Example 166, 5-(2-Methoxy-1-phenylethoxy)quinazoline-2,4-diamine] displayed an EC50 of less than 1000 nM.
Same read-out and setting: the figure for `CC(CC(O)(c1ccc(Cl)cc1)c1ccc(Cl)cc1)Oc1cccc2nc(N)nc(N)c12` (stereo not shown) [Example 168, 1,1-Bis-(4-chlorophenyl)-3-(2,4-diaminoquinazolin-5-yloxy)butan-1-ol] is 1000 to 5000 nM; for `COC(COc1cccc2nc(N)nc(N)c12)c1ccc2c(c1)OCO2` (stereo not shown) [Example 169, 5-(2-Benzo[1,3]dioxol-5-yl-2-methoxyethoxy)quinazoline-2,4-diamine hydrochloride] it is less than 1000 nM; for `Nc1nc(N)c2c(OC(CO)c3ccc4c(c3)OCO4)cccc2n1` (stereo not shown) [Example 170, 2-Benzo[1,3]dioxol-5-yl-2-(2,4-diaminoquinazolin-5-yloxy)ethanol hydrochloride] it is less than 1000 nM.

Still in this experiment, the particulars now being: SMN2 promoter driving β-lactamase, 12 point dose curve, average of 3-6 dose curve experiments.
Compound `Nc1nc(N)c2c(OCC3CCN(C(=O)c4cccc(I)c4)CC3)cccc2n1` [Example 135, [4-(2,4-Diaminoquinzolin-5-yloxymethyl)piperidin-1-yl]-(3-iodophenyl)methanone] had an EC50 of less than 1000 nM.
The same measure, in the same setting: as for `Nc1nc(N)c2c(OCC3CCN(C(=O)c4ccc(I)cc4)CC3)cccc2n1` [Example 136, [4-(2,4-Diaminoquinzolin-5-yloxymethyl)piperidin-1-yl]-(4-iodophenyl)methanone], the figure is less than 1000 nM; as for `Nc1nc(N)c2c(OCC3CCN(C(=O)c4ccccc4I)CC3)cccc2n1` [Example 137, [4-(2,4-Diaminoquinzolin-5-yloxymethyl)piperidin-1-yl]-(2-iodophenyl)methanone], less than 1000 nM.

The next experiment relates to SMN.
Experiment: not given
Particulars: cited from earlier work.
In the case of `CCCC(=O)[O-].[Na+]` [sodium butyrate], the SMN expression entry is recorded as “increase SMN expession”.
Turning to phenylbuytreate, the SMN expression entry is “increase SMN expession”.

A word on the EC50: it is the concentration that produces a half-maximal response.

The values are drawn from patent publication US9067897B2, “2,4-Diaminoquinazolines for spinal muscular atrophy” (Families of Spinal Muscular Atrophy, priority 2004, dated 2015).
